Key:
[1] = tested on: WIBR3 OCT4-ΔPE-GFP+-naïve hESCs; assay: Extended maintenance assay, OCT4-ΔPE-GFP reporter activity (imaging, qRT-PCR); assay type: cell-based, human; conditions: in the presence of ROCK inhibitor (Y) alone; 2.5 and 5 μM; two passages
Protocol: (§1) Defining alternative naïve maintenance media: To define the activity of selected hit compounds during extended naïve culture, naïve hESCs derived from the primed state and maintained in 5i/L/A were dissociated with Accutase (Thermo Fischer Scientific, A1110501) and 1.5×10^5 single cells were seeded in 5i/L/A media on MEF-coated plates. After 24 hours, 5i/L/A media were switched to experimental maintenance conditions to validate hits from the screen. After 4-6 days the cells were split in a 1:2 or 1:3 ratio and further maintained for 4-6 days before analysis by FACS, qRT-PCR, AP staining, and/or RNA-seq. 5i/L/A media in which the MEK inhibitor PD0325901 was replaced with 5 μM AZ628 are represented as alternative 5i/L/A (a5i/L/A). FXGY, AXGY, AXGYU, PXGY, and GXGY media were prepared in serum-free N2B27 media supplemented with 1 μM PD166866, 5 μM AZ628, 5 μM AZ628 and 1 μM UNC0638, 1 μM PD0325901, and 5 μM GDC-0994, respectively, together with 2 μM XAV939, 2 μM Gö6983, and 10 μM Y-27632. During these assays cells were fed with fresh media every second day and cultured in 5% O2, 5% CO2 at 37° C. Detailed information on conditions used for defining alternative naïve maintenance media can be found in Tables 1-6.
(§2) Quantitative reverse transcriptase PCR (qRT-PCR): Total RNA was isolated using the E.Z.N.A. total RNA kit I and cDNA synthesis was performed from total RNA using the high-capacity cDNA reverse transcription kit (Applied Biosystems, 4368814). qRT-PCR was performed using PowerUp SYBR Green Master Mix (Applied Biosystems, A25743) on the StepOnePlus Real-Time PCR System (Applied Biosystems). Gene expression was normalized to RPLP0 and analyzed using the ΔCt method. Error bars represent the standard deviation (SD) of the mean of technical replicates.
For this purpose, WIBR3 OCT4-ΔPE-GFP+-naïve hESCs that were generated in the absence of reprogramming transgenes were used using the 5i/L/A cocktail. […] Compounds were tested at two different concentrations (2.5 and 5 μM), and cells were maintained for two passages (FIG. 2A).

H9-naïve hESCs [2] = assay: Extended maintenance assay, flow cytometry for naïve-specific CD75 and SUSD2; assay type: cell-based, human; conditions: serum-free media supplemented with XGY, 2.5 μM compound
Protocol: as §1
Flow cytometry: Primed hESCs were single-cell dissociated using TrypLE Express, while Accutase was used for naïve hESCs. Cells were resuspended in fibroblast medium and centrifuged. Cell pellets were washed in 5 mL ice-cold PBS. The cells were then resuspended in […] fresh ice-cold FACS buffer (PBS supplemented with 5% FBS), and incubated with antibodies for 30 minutes on ice in the dark. The following antibodies were used: anti-SUSD2-PE (1:100), anti-CD75-eFluor 660 (1:100), anti-CD90-PE (1:100), anti-ITGA6-FITC (1:100) and EGFR-APC (1:25). Post-incubation the cells were washed once with 1 mL ice-cold PBS, resuspended in fresh 500 μl FACS buffer, and passed through a […] cell strainer into round bottom FACS tubes (Corning, #352235). Flow cytometry was performed using a BD LSRFortessa X-20 and the data were analyzed using the FlowJo software.

H9-naïve hESCs [3] = assay: qRT-PCR for naïve-specific transcripts (KLF17, DNMT3L) during naïve maintenance; assay type: cell-based, human; conditions: in XAV/Gö/Y; KLF17 and DNMT3L
Protocol: as §1, §2

p-ERK1/2 = conditions: stated as known; cited from earlier work

Cn1nccc1Nc1nccc(-c2ccn([C@H](CO)c3ccc(Cl)c(F)c3)c(=O)c2)n1 [GDC-0994, (S)-1-(1-(4-chloro-3-fluorophenyl)-2-hydroxyethyl)-4-(2-((1-methyl-1H-pyrazol-5-yl)amino)pyrimidin-4-yl)pyridin-2(1H)-one]
activity in maintaining OCT4-ΔPE-GFP reporter activity after passaging [1]: showed activity | sustaining CD75/SUSD2-positive cells over multiple passages (H9-naïve hESCs [2]): robustly sustained | concentration effective to maintain expression of naïve-specific transcripts (titration) (H9-naïve hESCs [3]): 5 µM | effect on phosphorylation of cellular ERK1/2 (p-ERK1/2): not to alter

From patent US20250382583A1, “ENHANCED METHODS FOR INDUCING AND MAINTAINING NAIVE HUMAN PLURIPOTENT STEM CELLS” (Washington University, priority 2021, published 2025)
